Assay results published in ChEMBL document CHEMBL2331128, “Nebulosides A-B, novel triterpene saponins from under-ground parts of Gypsophila arrostii Guss. var. nebulosa” (Bioorg Med Chem, 2013).
The source made the active and inactive calls. The rule behind the calls is not given here.

Assays:
ECV-304 [1] = assay: Cytotoxicity against human ECV304 cells at 15 ug/ml after 72 hrs by XTT reduction assay; type: cell-based; conditions: ecv-304, 72 h
ECV-304 [2] = assay: Induction of type I ribosome-inactivating protein-mediated cytotoxicity of human ECV304 cells measured at 15 ug/ml after 72 hrs by XTT reduction assay; type: functional, cell-based

Structure (SMILES)	Activity (ECV-304 [1])	Activity (ECV-304 [2])
C[C@@H]1O[C@@H](O[C@H]2[C@H](OC(=O)[C@]34CCC(C)(C)C[C@H]3C3=CC[C@@H]5[C@@]6(C)CC[C@H](O[C@@H]7O[C@H](C(=O)O)[C@@H](O)[C@H](O[C@@H]8OC[C@@H](O)[C@H](O)[C@H]8O)[C@H]7O[C@@H]7O[C@H](CO)[C@H](O)[C@H](O)[C@H]7O[C@@H]7O[C@H](CO)[C@H](O)[C@H](O)[C@H]7O)[C@@](C)(C=O)[C@@H]6CC[C@@]5(C)[C@]3(C)CC4)O[C@H](C)[C@@H](O)[C@@H]2O)[C@H](O)[C@H](O[C@@H]2O[C@H](CO)[C@@H](O)[C@H](O)[C@H]2O)[C@H]1O[C@@H]1OC[C@@H](O)[C@H](O[C@@H]2OC[C@@H](O)[C@H](O)[C@H]2O)[C@H]1O	Non-toxic	Active
C[C@@H]1O[C@@H](O[C@H]2[C@H](OC(=O)[C@]34CCC(C)(C)C[C@H]3C3=CC[C@@H]5[C@@]6(C)CC[C@H](O[C@@H]7O[C@H](C(=O)O)[C@@H](O)[C@H](O[C@@H]8OC[C@@H](O)[C@H](O)[C@H]8O)[C@H]7O[C@@H]7O[C@H](CO)[C@H](O)[C@H](O)[C@H]7O)[C@@](C)(C=O)[C@@H]6CC[C@@]5(C)[C@]3(C)C[C@H]4O)O[C@H](C)[C@@H](O)[C@@H]2O)[C@H](O)[C@H](O[C@@H]2O[C@H](CO)[C@@H](O)[C@H](O)[C@H]2O)[C@H]1O[C@@H]1OC[C@@H](O)[C@H](O[C@@H]2OC[C@@H](O)[C@H](O)[C@H]2O)[C@H]1O	Non-toxic	Active
